Structures are written as SMILES. Like-named read-outs stand apart in the source and are kept apart here.

For this assay, the target named is T1, human B-Raf (Homo sapiens, UniProt P15056).
T1 construct: Flag; GST; made in house; host or cells: Sf9 insect cells (B-Raf); E. coli (MEK1-GST)
In words: B-Raf Kinase to MEK1 ELISA. Type of assay: biochemical. The following applies: for inhibition at 10 µM: read-out: % Inhib./10 uM. The essentials:
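Read-out is a DELFIA europium signal from phospho-MEK1 (Ser217/221) antibody after capture of GST-MEK1 (50 nM final) on anti-GST plates. Phosphorylation comes from Sf9-expressed Flag/GST human B-Raf (~20 ng) with ATP/MgCl2, 60 min RT, pH 7.2 MOPS.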

Where [1] appears, read: median, cpd concentrations from 10 μM to 30 nM in half log dilutions, read-out: Median IC50.

T1 sequence (P15056 whole entry): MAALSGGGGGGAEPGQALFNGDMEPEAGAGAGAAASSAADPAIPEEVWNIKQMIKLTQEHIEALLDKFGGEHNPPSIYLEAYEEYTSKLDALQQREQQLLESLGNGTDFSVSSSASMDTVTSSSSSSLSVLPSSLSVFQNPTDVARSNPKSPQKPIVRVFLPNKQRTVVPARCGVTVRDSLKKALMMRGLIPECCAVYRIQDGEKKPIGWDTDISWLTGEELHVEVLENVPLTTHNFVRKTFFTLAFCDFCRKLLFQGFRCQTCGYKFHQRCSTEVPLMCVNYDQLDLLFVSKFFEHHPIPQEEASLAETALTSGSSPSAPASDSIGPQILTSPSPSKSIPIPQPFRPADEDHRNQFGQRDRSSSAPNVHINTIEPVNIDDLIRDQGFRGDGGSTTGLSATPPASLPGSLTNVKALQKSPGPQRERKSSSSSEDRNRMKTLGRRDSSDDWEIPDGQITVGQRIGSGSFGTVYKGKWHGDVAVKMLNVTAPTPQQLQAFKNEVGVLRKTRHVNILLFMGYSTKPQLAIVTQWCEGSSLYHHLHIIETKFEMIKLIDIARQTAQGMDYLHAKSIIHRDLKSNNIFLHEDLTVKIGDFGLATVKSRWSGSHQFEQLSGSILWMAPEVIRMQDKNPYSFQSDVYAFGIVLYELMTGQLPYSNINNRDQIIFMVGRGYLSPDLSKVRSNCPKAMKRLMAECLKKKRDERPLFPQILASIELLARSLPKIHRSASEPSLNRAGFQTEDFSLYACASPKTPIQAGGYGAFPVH

Turning to `CCOC(=O)c1cnn2c(-c3cccc(NC(=O)Nc4ccc(N5CCOCC5)c(Cl)c4)c3)ccnc12` [Example 84, ethyl 7-[3-({[(3-chloro-4-morpholin-4-ylphenyl)amino]carbonyl}amino)phenyl]pyrazolo[1,5-a]pyrimidine-3-carboxylate], the inhibition at 10 µM was 22%. For the same compound, under setting [1], the IC50 is over 10 µM.
In the case of `CC(=O)c1cccc(-c2cnn3c(-c4cccc(NC(=O)c5cccc(C(F)(F)F)c5)c4)ccnc23)c1` [Example 299, N-{3-[3-(3-acetylphenyl)pyrazolo[1,5-a]pyrimidin-7-yl]phenyl}-3-(trifluoromethyl)benzamide], half-maximal inhibition (IC50) required 0.619 µM and the inhibition at 10 µM turned out to be 63%.
Regarding `CCOC(=O)c1c(C)nn2c(-c3cccc(NC(=O)c4cccc(C(F)(F)F)c4)c3)ccnc12` [Example 58, Ethyl 2-methyl-7-(3-{[3-(trifluoromethyl)benzoyl]amino}phenyl)pyrazolo[1,5-a]pyrimidine-3-carboxylate], the inhibition at 10 µM was found to be 4%. Also, the IC50 under setting [1] is over 10 µM.
The like results for `CCOC(=O)c1cnn2c(-c3cccc(NC(=O)c4nccc5ccccc45)c3)ccnc12` [Example 218, ethyl7-{3-[(isoquinolin-1-ylcarbonyl)amino]phenyl}pyrazolo[1,5-a]pyrimidine-3-carboxylate] were, in that order, 73% and 4.49 µM.
Regarding `CCOC(=O)c1cnn2c(-c3cccc(NC(=O)Cc4cccc(OC)c4)c3)ccnc12` [Example 96, ethyl 7-(3-{[(3-methoxyphenyl)acetyl]amino}phenyl)pyrazolo[1,5-a]pyrimidine-3-carboxylate], the inhibition at 10 µM worked out at 0%. Moreover, under setting [1], the IC50 was over 10 µM.
As to `CCOC(=O)c1cnn2c(-c3cccc(NC(=O)c4cccc(Br)c4)c3)ccnc12` [Example 4, ethyl 7-{3-[(3-bromobenzoyl)amino]phenyl}pyrazolo[1,5-a]pyrimidine-3-carboxylate], the inhibition at 10 µM stood at 4%. Further, under setting [1], the IC50 was over 10 µM.
The like results for `O=C(Nc1cccc(-c2ccnc3c(-c4ccc(C(F)(F)F)cc4)cnn23)c1)c1cccc(C(F)(F)F)c1` [Example 292, 3-(trifluoromethyl)-N-(3-{3-[4-(trifluoromethyl)phenyl]pyrazolo[1,5-a]pyrimidin-7-yl}phenyl)benzamide] were, in that order, 26% and over 10 µM.
Consider `O=C(Nc1cccc(-c2ccnc3ccnn23)c1)c1cccc(C(F)(F)F)c1` [Example 153, N-(3-pyrazolo[1,5-a]pyrimidin-7-ylphenyl)-3-(trifluoromethyl)benzamide], for which the inhibition at 10 µM came to 31%. Besides, under setting [1], the IC50 is over 10 µM.
On the same counts, the results for `CCOC(=O)c1cnn2c(-c3cccc(NC(=O)Nc4ccc(OC(F)(F)F)cc4)c3)ccnc12` [Example 23, ethyl 7-{3-[({[4-(trifluoromethoxy)phenyl]amino}carbonyl)amino]phenyl}pyrazolo[1,5-a]pyrimidine-3-carboxylate] are 20% and over 10 µM.
The like results for `O=C(Nc1cccc(-c2ccnc3cc(-c4ccncc4)nn23)c1)c1nccc2ccccc12` [Example 237, N-[3-(2-pyridin-4-ylpyrazolo[1,5-a]pyrimidin-7-yl)phenyl]isoquinoline-1-carboxamide] were, in that order, 44% and over 10 µM.
`CCOC(=O)c1cnn2c(-c3cccc(NC(=O)Nc4ccc(C#N)c(C(F)(F)F)c4)c3)ccnc12` [Example 78, ethyl 7-{3-[({[4-cyano-3-(trifluoromethyl)phenyl]amino}carbonyl)amino]phenyl}pyrazolo[1,5-a]pyrimidine-3-carboxylate] gave an IC50 of 0.57 µM. For the same compound, the inhibition at 10 µM (single point assay, 10 uM) worked out at 85%.
Regarding `O=C(Nc1cccc(-c2ccnc3c(C(=O)NCc4ccccc4)cnn23)c1)c1cccc(C(F)(F)F)c1` [Example 57, N-benzyl-7-(3-{[3-(trifluoromethyl)benzoyl]amino}phenyl)pyrazolo[1,5-a]pyrimidine-3-carboxamide], the inhibition at 10 µM was found to be 51%. Further, the IC50 under setting [1] was found to be 1.64 µM.

Source of the values: patent publication US20070219186A1, “Pyrazolo[1,5-A]pyrimidine derivatives and methods of use thereof” (priority 2006, published 2007).
